In article PMC5578202, “Bioaccessibility, Intestinal Permeability and Plasma Stability of Isorhamnetin Glycosides from Opuntia ficus-indica (L.)” (International Journal of Molecular Sciences, 2017):
Read-outs that look alike come from different tables or passages of the source.

How the values were obtained:
[1] = Simulated in vitro digestion (oral, gastric, intestinal): recovery percentage / bioaccessibility; type: in vitro ADME; settings: human-simulated digestion
Method: The simulated in vitro digestion model was performed based on the methodology described by Garrett et al., with some modifications. Isorhamnetin aglycones and O. ficus-indica extract were subjected to digestion in triplicate. A three-step procedure was applied to simulate the digestive processes in the mouth, stomach, and small intestine. The digestion started with an amount of extract that contained an equivalent of 10 mg of isorhamnetin (60 mg) or 10 mg of isorhamnetin standard. An α-amylase solution (75 Units/mL) was added to 20 mL of solution, adjusted to pH 6.9, which was incubated for 10 min. This mixture was shaken using a VWR® Incubating orbital shaker (Thorofare, NJ, USA) for 10 min at 37 °C and 55 rpm. The gastric digestion started by adjusting the pH to 2 with 1 M HCl and, after, 2 mL of porcine-pepsin solution was added (40 mg/mL in 0.1 M HCl). This mixture was shaken in an incubator for 1 h at 37 °C and 95 rpm. For the intestinal digestion, the solution was previously adjusted to pH 5.3 with 0.9 M NaHCO3 and then a mixture of bile salts and pancreatin (6 mL containing porcine-pancreatin (2 mg/mL), and bile salts (12 mg/mL) dissolved in a NaHCO3 solution (100 mM), were added. Concentrations of pancreatin and bile extract in the final solution were 0.4 and 2.4 mg/mL, respectively. Then, the solution was adjusted to pH 7.5 by adding 1N NaOH. The mixture was shaken in an incubator for 2 h at 37 °C and 95 rpm. The enzyme reaction was inactivated by placing the sample in a hot water bath (80 °C for 2 min). At the end of the process, the digested samples were centrifuged at 13,000× g and 4 °C for 5 min (Thermo Scientific SL 16R centrifuge, Osterode, Germany). The resulting supernatant, which was considered the bioaccessible or absorbable fraction, was recovered. The recovery percentage of each compound was calculated based on the concentration in the supernatant recovered after each phase (oral, gastric, and intestinal) of the in vitro digestion. This fraction was also tested for permeability and potential bioavailability of the isorhamnetin glycosides present in the O. ficus-indica extract.

[2] = tested on: Caco-2/HT-29 cell monolayer; assay: Permeability across Caco-2/HT-29 (75:25) co-culture monolayer; type: in vitro ADME, human; settings: for Efflux ratio [Papp(BL-AP)/Papp(AP-BL)]: Caco-2/HT-29 (Figure 2b); for Apparent permeability coefficient apical to basolateral, Papp(AP-BL): Caco-2/HT-29 co-culture, digested samples
Method: (§1) Caco-2 and HT-29 cell lines were obtained from ATCC (American Tissue Culture Collection, Rockville, MD, USA). Cells were cultured in DMEM-F12 supplemented with 10% fetal bovine serum and were maintained at 37 °C in 5% CO2. Before the start of the permeability experiments, the cytotoxicity of isorhamnetin and the O. ficus-indica extract on Caco-2/HT-29 (75:25) co-culture were tested to ensure that the viability of the cells was over 90%. Permeability experiments were performed according to Xie et al. and Hubatsch et al. with slight modifications. Caco-2 and HT-29 co-culture cell monolayer (75:25) were seeded on 6-well transwell plates, with inserts having a polycarbonate membrane with a surface area of 4.71 cm^2 and a pore diameter of 0.4 µm (Costar, Corning, NY, USA) at a final seeding density of 1 × 10^6 cells/insert, cultured for 21 days. Caco-2 cell monolayers were washed with warm HBSS medium (pH 7.4) and then digested samples of isorhamnetin aglycone or O. ficus-indica extract were added to the apical side (AP: 1.5 mL), whereas the receiving compartment or basolateral side (BL: 2.5 mL) contained the corresponding volume of HBSS. Plates with transwell inserts were incubated at 37 °C in an orbital shaking incubator at 100 rpm. Aliquots of 1 mL were withdrawn from both compartments at 15, 30, 60 and 120 min, and fresh HBSS was added to replace the withdrawn volume. Samples were immediately frozen and preserved at −20 °C until HPLC analysis. All experiments were performed in triplicate.
(§2) The apparent permeability coefficient (Papp) was calculated from the cumulative amount permeated versus the time profile according the following Equation (1): Papp = (dQ/dt) × (V/A × C0) (1) where dQ/dt is the change in drug concentration in the receiver solution (µM/s), V represents the volume of the solution in the receiving compartment (mL), A denotes the membrane surface area (cm^2), and C0 is the initial concentration in the donor compartment (µM).
(§3) The integrity of the monolayers was measured at the beginning and the end of the experiment using the paracellular permeability of lucifer yellow (LY). Fluorescence was measured at 530 nm (emission) and 485 nm (excitation) using a microplate reader (Synergy HT, BioTek, Winooski, VM). The data from membranes displaying an LY apparent permeability coefficient (Papp) > 1 × 10^−6 cm/s were excluded.

[3] = cited from earlier work
[4] = cited from earlier work; for Recovery after intestinal digestion: ref Ydjedd et al. [40]
[5] = tested on: Caco-2 cell monolayer; settings: cited from earlier work
[6] = Plasma stability / pharmacokinetics after intravenous dose in rats; design: species or system rat; settings: male, Wistar, in vivo, intravenous dose 2 mg/kg
Method: Twenty-seven male Wistar rats, weighing approximately 200 g (eight weeks old), were divided in nine groups of three animals each. One group was taken as a control and received only a saline solution through the caudal vein. Four groups received an intravenous dose (2 mg/kg) of the O. ficus-indica extract and the last four groups received the commercial isorhamnetin standard. The dosage was determined based on results previously reported by Antunes-Ricardo et al.. Animals were anaesthetized with ketamine/xilazyne (60 mg/kg; 10 mg/kg), and then blood was extracted by intracardiac puncture at different sampling times (0.25, 0.5, 1 and 1.5 h). This procedure was randomized to avoid any bias results. After blood extraction, the animals were sacrificed by cervical dislocation. Plasma was obtained as previously described (see Section 4.6) and the samples were stored at −20 °C until analysis.
Plasma samples were spiked with 25 µL of quercetin (30 µg/mL) as an internal standard. Then, plasma samples were submitted to an acid hydrolysis with 2 M HCl for 180 min at 80 °C. Then, samples were extracted with 100% methanol (10:1, v/v), centrifuged, and the resulting supernatants were quantified by HPLC-PDA. The area under the concentration-time curve (AUC0−1.5 h) was calculated based on the linear trapezoidal method. The elimination half-life (t1/2) was determined by linear regression of the terminal portion of the plasma concentration-time data. The plasma clearance (CLplasma) was calculated by multiplying the volume of distribution, Vd, by the elimination constant, Kel, according to the following Equation (3): CLplasma: Vd × Kel (3)

[7] = design: method as in Duan et al. [24]; settings: ref Duan et al. [24]; cited from earlier work
[8] = Permeability across Caco-2/HT-29 (75:25) co-culture monolayer; type: in vitro ADME, human; settings: human, pH 7.4
Method: as §1, §2, §3

[9] = intestinal phase, pH 7.5, pancreatin and bile salts
[10] = Caco-2 monolayer, ref Xie et al. [47]

## isorhamnetin-3-O-glucosyl-pentoside [IGP]
[1]; gastric phase, pH 2, pepsin
  Recovery percentage after gastric digestion phase: 93.5 ± 3.3 ^A,a %
[1]; [9]
  Recovery percentage after intestinal digestion phase: 73.3 ± 3.5 ^A,b %
[1]; oral phase, pH 6.9, α-amylase
  Recovery percentage after oral digestion phase: 96.6 ± 4.7 ^A,a %
[2]
  Efflux ratio [Papp(BL-AP)/Papp(AP-BL)]: 3.0

## COc1ccc([C@@H]2CC(=O)c3c(O)cc(O[C@@H]4O[C@H](CO)[C@@H](O)[C@H](O)[C@H]4O)cc3O2)cc1O [hesperetin-7-O-glucoside]
[3]; human, in vivo
  Bioavailability higher than hesperetin-7-O-rutinoside: 76%
[3]; in vivo, po
  tmax: 30 ± 6 min
[3]; in vivo
  Improvement of bioavailability on removing the rhamnose moiety from hesperetin-7-glucosyl-rhamnoside: two-fold

## C[C@@H]1O[C@@H](Oc2c(-c3ccc(O)c(O)c3)oc3cc(O)cc(O)c3c2=O)[C@H](O)[C@H](O)[C@H]1O [quercetin rhamnoside]
[4]
  Recovery after intestinal digestion: 47.9%

## COc1ccc([C@@H]2CC(=O)c3c(O)cc(O[C@@H]4O[C@H](CO[C@@H]5O[C@@H](C)[C@H](O)[C@@H](O)[C@H]5O)[C@@H](O)[C@H](O)[C@H]4O)cc3O2)cc1O [hesperetin-7-O-rutinoside]
[3]; after oral consumption, ref [32]
  tmax: 288 ± 132 min

## isorhamnetin-3-O-glucosyl-rhamnosyl-rhamnoside [IGRR]
[1]; gastric phase, pH 2, pepsin
  Recovery percentage after gastric digestion phase: 96.0 ± 4.4 ^A,a %
[1]; [9]
  Recovery percentage after intestinal digestion phase: 79.5 ± 1.8 ^A,b %
[1]; oral phase, pH 6.9, α-amylase
  Recovery percentage after oral digestion phase: 99.1 ± 3.8 ^A,a %
[2]
  Efflux ratio [Papp(BL-AP)/Papp(AP-BL)]: 5.9
  Apparent permeability coefficient apical to basolateral, Papp(AP-BL): 1.03 ± 0.04 × 10^−6 cm/s

## O=c1cc(-c2ccccc2)oc2cc(O)cc(O)c12 [chrysin]
[5]; ref [36]
  Permeability basolateral to apical relative to apical to basolateral: two-fold higher

## O=c1c(O[C@@H]2O[C@H](CO)[C@H](O)[C@H](O)[C@H]2O)c(-c2ccc(O)c(O)c2)oc2cc(O)cc(O)c12 [Quercetin-3-galactoside]
[3]; after ingestion of cranberry juice, ref Wang et al. [55]
  Concentration in plasma: 10 to 15 ng/mL
[5]; ref Duan et al. [24]
  Efflux ratio compared with quercetin-3-glucoside: higher efflux ratio

## COc1cc(-c2oc3cc(O)cc(O)c3c(=O)c2O)ccc1O [I, isorhamnetin]
[6]; rat plasma, isorhamnetin after acid hydrolysis, read-out: AUC0–1.5 h of isorhamnetin
  AUC(0-t): 104 ± 4.89 µM·h
[6]; rat plasma, read-out: Elimination half-life t1/2 (converted)
  half-life: 38.4 min
[6]; rat, read-out: CL plasma
  clearance: 7.44 ± 1.21 mL/min
[7]
  pKa: 6.3
[1]; intestinal phase, pH 7.5, pancreatin and bile salts, read-out: Recovery percentage after intestinal digestion phase
  recovery at 2 h, 0.33 mg/mL: 74.3 ± 7.4%
[1]; oral phase, pH 6.9, α-amylase, read-out: Recovery percentage after oral digestion phase
  recovery at 10 min, 0.5 mg/mL: 35 ± 2.4%
[1]; simulated in vitro digestion, gastric phase, pH 2, pepsin, read-out: Recovery percentage after gastric digestion phase
  recovery at 1 h: 49 ± 3.4%
[4]; from almond skins, ref [19]
  Bioaccessibility after a simulated digestion: 25.1 ± 7.0%
[8]; Caco-2/HT-29 (Figure 2b), read-out: Efflux ratio [Papp(BL-AP)/Papp(AP-BL)]
  efflux ratio at 120 min: 0.6
[8]; Caco-2/HT-29 co-culture, digested samples, read-out: Apparent permeability coefficient apical to basolateral, Papp(AP-BL)
  Papp A→B at 120 min: 4.74 ± 0.02 ×10⁻⁶ cm/s
[2]; Caco-2/HT-29
  Papp basolateral to apical relative to Papp apical to basolateral: two-fold lower
[5]; Caco-2 cells, ref Lan et al. [35]
  Papp(AP-BL): 2.28 ± 0.09 × 10^−6 cm/s
[5]; Caco-2 monolayer, tested alone, ref Xie et al. [47]
  Papp: 1.61 ×10⁻⁶ cm/s
[5]; [10]
  Increase of Papp in combination with kaempferol: 1.33 fold
  Increase of Papp in combination with quercetin: 2.38 fold

## isorhamnetin-3-O-glucosyl-rhamnosyl-pentoside [IGRP]
[1]; gastric phase, pH 2, pepsin
  Recovery percentage after gastric digestion phase: 96.2 ± 0.4 ^A,a %
[1]; [9]
  Recovery percentage after intestinal digestion phase: 80.3 ± 1.9 ^A,b %
[1]; oral phase, pH 6.9, α-amylase
  Recovery percentage after oral digestion phase: 93.8 ± 5.2 ^A,a %
[2]
  Efflux ratio [Papp(BL-AP)/Papp(AP-BL)]: 5.2
  Apparent permeability coefficient apical to basolateral, Papp(AP-BL): 1.28 ± 0.02 × 10^−6 cm/s

## isorhamnetin-3-O-glucosyl-rhamnoside [IGR]
[1]; gastric phase, pH 2, pepsin
  Recovery percentage after gastric digestion phase: 96.8 ± 0.9 ^A,a %
[1]; [9]
  Recovery percentage after intestinal digestion phase: 81.0 ± 4.6 ^A,b %
[1]; oral phase, pH 6.9, α-amylase
  Recovery percentage after oral digestion phase: 99.6 ± 3.8 ^A,a %
[2]
  Efflux ratio [Papp(BL-AP)/Papp(AP-BL)]: 3.1
  Apparent permeability coefficient apical to basolateral, Papp(AP-BL): 1.72 ± 0.01 × 10^−6 cm/s
[5]; Caco-2 monolayers, ref Tian et al. [23]
  Papp(AP-BL): 2.9e-07 cm/s

## O=c1c(O)c(-c2ccc(O)c(O)c2)oc2cc(O)cc(O)c12 [quercetin as aglycone, quercetin]
[3]; in humans, ref [54]
  AUC0–24 h: 2500 ± 2200 ng·h/mL
[3]; ref Petersen et al. [56]
  AUC0–1440 min of quercetin: 62 ± 12 µmol·min/L

## quercetin-3-glucosyl-rhamnoside
[4]; ref Tenore et al. [37]
  Decrease in levels after intestinal digestion phase compared with gastric step: 18.6%

## C[C@@H]1O[C@@H](Oc2c(-c3cc(O)c(O)c(O)c3)oc3cc(O)cc(O)c3c2=O)[C@H](O)[C@H](O)[C@H]1O [myricetin-rhamnoside]
[4]; ref Ortega et al. [39]
  Recovery after a simulated digestion process: 51.5%
[4]
  Recovery after intestinal digestion: 40.2%
